Read-outs that look alike come from different tables or passages of the source.
Legend:
Assay type in all cases: cell-based, Human
Conditions in all cases: 4 days incubation, mean ± SD, triplicate
[1] = tested on: A549 lung cancer cell line; assay: MTT cytotoxicity assay, A549 cells
Method: (§1) Cell cultures: Human A549, HepG2, and HeLa cell lines from Cancer Institute and Hospital of Chinese Academy of Medical Sciences (Beijing, China), were cultured in Dulbecco’s modified Eagle’s medium (DMEM, Gibco, CA, USA) supplemented with 10% (v/v) fetal calf serum (Gibco, CA, USA), penicillin G (Macgene, China) 100 units mL^−1 and streptomycin (Macgene, China) 100 μg mL^−1, at 37 °C under 5% CO2.
(§2) Cell viability assay: The assay was run in triplicate. In a 96-well plate, each well was plated with 2 × 10^4 cells. After cell attachment overnight, the medium was removed, and each well was treated with 100 μL of medium containing 0.1% DMSO or different concentrations of the test compounds and the positive control cis-platin. The plate was incubated at 37 °C for 4 days in a humidified, 5% CO2 atmosphere. Cytotoxicity was determined using a modified 3-(4,5-dimethylthiazol-2-yl)-2,5-diphenyltetrazolium bromide (MTT) colorimetric assay. After the addition of a 10 μL MTT solution (5 mg/mL), cells were incubated at 37 °C for 4 h. After adding 150 μL DMSO, cells were shaken to mix thoroughly. The absorbance of each well was measured at 540 nm in a Multiscan photometer.
(§3) Statistical analysis: Values were expressed as mean ± SD. Statistical analyses were performed using the Student’s t-test. Differences were considered significant when associated with a probability of 5% or less (p ≤ 0.05).

[2] = tested on: Hep G2 hepatocellular cancer cell line; assay: MTT cytotoxicity assay, Hep G2 cells
Method: as §1, §2, §3

[3] = tested on: HeLa cervical cancer cell line; assay: MTT cytotoxicity assay, HeLa cells
Method: as §1, §2, §3

Row | SMILES | IC50 ([1]; Homo sapiens, 96 h) | IC50 ([2]; Homo sapiens, HepG2, 96 h) | IC50 ([3]; Homo sapiens, 96 h) | IC50 [1] | IC50 ([2]; read-out: IC50 (μM) HepG2) | IC50 [3]
1 | C=C1C(=O)O[C@H]2[C@H]1[C@@H](O)[C@H](OC(=O)CC(C)C)[C@H](C)CCC(=O)[C@](C)(O)[C@@H]2OC(=O)C(C)C [Compound 1, 4β,8α-dihydroxy-5β-isobutyryloxy-9β-3-methylbutyryloxy-3-oxo-germacran-6α, 12-olide] | > 40 µM | 17 ± 2.23 µM | 29.39 ± 0.17 µM | – | – | –
2 | C=C1C(=O)O[C@H]2[C@H]1[C@@H](O)[C@H](OC(=O)CC(C)C)[C@H](C)CCC(=O)[C@](C)(O)[C@@H]2OC(=O)CC(C)C [Compound 2, divarolide E] | 30.7 ± 0.51 µM | 7.47 ± 0.21 µM | 16.8 ± 0.27 µM | – | – | –
3 | C=C(C)C(=O)O[C@H]1[C@H](O)[C@H]2C(=C)C(=O)O[C@@H]2[C@@H](OC(=O)C(C)C)[C@@](C)(O)C(=O)CC[C@H]1C [Compound 3, divarolide F] | > 40 µM | > 40 µM | > 40 µM | – | – | –
4 | C=C1C(=O)OC2C1C(O)C(OC(=O)C(C)CC)C(C)CCC(=O)C(C)(O)C2OC(=O)C(C)CC (stereo not drawn) [Compound 4, divarolide G] | > 40 µM | > 40 µM | > 40 µM | – | – | –
5 | C=C1C(=O)O[C@H]2[C@H]1[C@@H](O)[C@H](OC(=O)CC(C)C)[C@H](C)CCC(=O)[C@](C)(O)[C@@H]2OC(=O)C(C)CC (stereo partly drawn) [Compound 5, 4β,8α-dihydroxy-5β-2-methylbutyryloxy-9β-3-methylbutyryloxy-3-oxo-germacran-7β, 12α-olide] | > 40 µM | 31.64 ± 0.16 µM | 11.6 ± 1 µM | – | – | –
6 | N.N.[Cl][Pt][Cl] [cis-platin, reference compound] | – | – | – | 7.9 ± 0.23 µM | 13 ± 1.49 µM | 15.3 ± 0.35 µM
